Key:
bedstraw = experiment: Test B pre/postemergence bedstraw; assay type: in vivo, Galium aparine
How it was run: (§1)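 Response is a visual 0-to-10 score relative to untreated plants, where 0 means no effect and 10 means complete control, taken twelve to sixteen days after application. Treatments went onto soil at planting and onto foliage of 1- to 4-leaf plants, using a surfactant-containing non-phytotoxic solvent.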

blackgrass = experiment: Test B pre/postemergence blackgrass; assay type: in vivo, Alopecurus myosuroides
How it was run: as §1

surinam grass = experiment: Test B pre/postemergence surinam grass; assay type: in vivo, Brachiaria decumbens
How it was run: as §1

cocklebur = experiment: Test B pre/postemergence cocklebur; assay type: in vivo, Xanthium strumarium
How it was run: as §1

corn = experiment: Test B pre/postemergence corn; assay type: in vivo, Zea mays
How it was run: as §1

crabgrass = experiment: Test B pre/postemergence crabgrass; assay type: in vivo, Digitaria sanguinalis
How it was run: as §1

pigweed = experiment: Test B pre/postemergence pigweed; assay type: in vivo, Amaranthus retroflexus
How it was run: as §1

rape = experiment: Test B pre/postemergence rape; assay type: in vivo, Brassica napus
How it was run: as §1

soybean = experiment: Test B pre/postemergence soybean; assay type: in vivo, Glycine max
How it was run: as §1

sugar beet = experiment: Test B pre/postemergence sugar beet; assay type: in vivo, Beta vulgaris
How it was run: as §1

velvetleaf = experiment: Test B pre/postemergence velvetleaf; assay type: in vivo, Abutilon theophrasti
How it was run: as §1

wheat = experiment: Test B pre/postemergence wheat; assay type: in vivo, Triticum aestivum
How it was run: as §1

wild oat = experiment: Test B pre/postemergence wild oat; assay type: in vivo, Avena fatua
How it was run: as §1

purple nutsedge = experiment: Test B pre/postemergence purple nutsedge; assay type: in vivo, Cyperus rotundus
How it was run: as §1

smallflower flatsedge = experiment: Test B flood test smallflower flatsedge; assay type: in vivo, Cyperus difformis
How it was run: (§2)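 Each value is a visual injury score relative to controls, with 10 meaning complete control and 0 no effect. Evaluation took place twelve to sixteen days after the 2-leaf-stage plants were treated and kept in the greenhouse.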

bamyardgrass = experiment: Test B flood test barnyardgrass; assay type: in vivo, Echinochloa crus-galli
How it was run: as §2

[1] = Preemergence, Rate 62 g/ha, scale of 0 to 10 where 0 is no effect and 10 is complete control
[2] = Preemergence, Rate 250 g/ha, scale of 0 to 10 where 0 is no effect and 10 is complete control
[3] = Preemergence, Rate 500 g/ha, scale of 0 to 10 where 0 is no effect and 10 is complete control
[4] = Rate 62 g/ha, Postemergence, scale 0 to 10 (0 no effect, 10 complete control)
[5] = Rate 125 g/ha, Postemergence, scale of 0 to 10 where 0 is no effect and 10 is complete control
[6] = Rate 125 g/ha, Preemergence, scale of 0 to 10 where 0 is no effect and 10 is complete control
[7] = Rate 250 g/ha, Postemergence, scale of 0 to 10 where 0 is no effect and 10 is complete control
[8] = Rate 500 g/ha, Postemergence, scale 0 to 10, 0 no effect, 10 complete control
[9] = Rate 62 g/ha, headed Pre-emergence (flood test species), scale 0 to 10 (0 no effect, 10 complete control)
[10] = Rate 125 g/ha, Pre-emergence, flood test species, scale 0 to 10 where 0 is no effect and 10 is complete control
[11] = Rate 250 g/ha, Pre-emergence, flood-test species, scale 0 to 10, 0 is no effect, 10 is complete control
[12] = Rate 500 g/ha, Pre-emergence, flood test species, scale 0 to 10 (0 no effect, 10 complete control)

CC(C)N(C(=O)n1oc(=O)n(C2CCCC2)c1=O)c1ccc(F)cc1F [Compound 284]
Bedstraw plant response rating (bedstraw; [1]): 0
Bedstraw plant response rating (bedstraw; [2]): 8
Plant response rating, Bedstraw (bedstraw; [3]): 8
Bedstraw plant response rating (bedstraw; [4]): 2
Bedstraw plant response rating (bedstraw; [5]): 5
Bedstraw plant response rating (bedstraw; [6]): 8
Plant response rating, Bedstraw (bedstraw; [7]): 6
Bedstraw plant response rating (bedstraw; [8]): 9
Blackgrass plant response rating (blackgrass; [1]): 0
Blackgrass plant response rating (blackgrass; [2]): 8
Plant response rating, Blackgrass (blackgrass; [3]): 10
Blackgrass plant response rating (blackgrass; [4]): 3
Blackgrass plant response rating (blackgrass; [5]): 5
Blackgrass plant response rating (blackgrass; [6]): 4
Plant response rating, Blackgrass (blackgrass; [7]): 7
Blackgrass plant response rating (blackgrass; [8]): 8
B. signalgrass plant response rating (surinam grass; [1]): 5
B. signalgrass plant response rating (surinam grass; [2]): 5
Plant response rating, B. signalgrass (surinam grass; [3]): 8
B. signalgrass plant response rating (surinam grass; [4]): 0
B. signalgrass plant response rating (surinam grass; [5]): 0
B. signalgrass plant response rating (surinam grass; [6]): 5
Plant response rating, B. signalgrass (surinam grass; [7]): 0
B. signalgrass plant response rating (surinam grass; [8]): 1
Cocklebur plant response rating (cocklebur; [1]): 0
Plant response rating, Cocklebur (cocklebur; [3]): 0
Cocklebur plant response rating (cocklebur; [4]): 0
Cocklebur plant response rating (cocklebur; [5]): 2
Plant response rating, Cocklebur (cocklebur; [7]): 2
Cocklebur plant response rating (cocklebur; [8]): 2
Corn plant response rating (corn; [1]): 0
Corn plant response rating (corn; [2]): 0
Plant response rating, Corn (corn; [3]): 0
Corn plant response rating (corn; [4]): 0
Corn plant response rating (corn; [5]): 0
Corn plant response rating (corn; [6]): 0
Plant response rating, Corn (corn; [7]): 0
Corn plant response rating (corn; [8]): 0
Crabgrass plant response rating (crabgrass; [1]): 4
Crabgrass plant response rating (crabgrass; [2]): 8
Plant response rating, Crabgrass (crabgrass; [3]): 9
Crabgrass plant response rating (crabgrass; [4]): 0
Crabgrass plant response rating (crabgrass; [5]): 1
Crabgrass plant response rating (crabgrass; [6]): 4
Plant response rating, Crabgrass (crabgrass; [7]): 1
Redroot pigweed plant response rating (pigweed; [1]): 5
Redroot pigweed plant response rating (pigweed; [2]): 7
Plant response rating, Redroot pigweed (pigweed; [3]): 8
Redroot pigweed plant response rating (pigweed; [4]): 3
Redroot pigweed plant response rating (pigweed; [5]): 4
Redroot pigweed plant response rating (pigweed; [6]): 6
Plant response rating, Redroot pigweed (pigweed; [7]): 6
Rape plant response rating (rape; [1]): 2
Rape plant response rating (rape; [2]): 7
Plant response rating, Rape (rape; [3]): 7
Rape plant response rating (rape; [4]): 1
Rape plant response rating (rape; [5]): 3
Rape plant response rating (rape; [6]): 2
Plant response rating, Rape (rape; [7]): 4
Soybean plant response rating (soybean; [1]): 0
Soybean plant response rating (soybean; [2]): 0
Plant response rating, Soybean (soybean; [3]): 3
Soybean plant response rating (soybean; [4]): 4
Soybean plant response rating (soybean; [5]): 4
Soybean plant response rating (soybean; [6]): 0
Plant response rating, Soybean (soybean; [7]): 4
Sugarbeets plant response rating (sugar beet; [1]): 2
Sugarbeets plant response rating (sugar beet; [2]): 6
Plant response rating, Sugarbeets (sugar beet; [3]): 6
Sugarbeets plant response rating (sugar beet; [4]): 1
Sugarbeets plant response rating (sugar beet; [5]): 3
Sugarbeets plant response rating (sugar beet; [6]): 5
Plant response rating, Sugarbeets (sugar beet; [7]): 5
Velvetleaf plant response rating (velvetleaf; [1]): 0
Velvetleaf plant response rating (velvetleaf; [2]): 0
Plant response rating, Velvetleaf (velvetleaf; [3]): 7
Velvetleaf plant response rating (velvetleaf; [4]): 0
Velvetleaf plant response rating (velvetleaf; [5]): 0
Velvetleaf plant response rating (velvetleaf; [6]): 0
Plant response rating, Velvetleaf (velvetleaf; [7]): 2
Wheat plant response rating (wheat; [1]): 0
Wheat plant response rating (wheat; [2]): 0
Plant response rating, Wheat (wheat; [3]): 0
Wheat plant response rating (wheat; [4]): 0
Wheat plant response rating (wheat; [5]): 0
Wheat plant response rating (wheat; [6]): 0
Plant response rating, Wheat (wheat; [7]): 0
Wild oats plant response rating (wild oat; [1]): 0
Wild oats plant response rating (wild oat; [2]): 3
Plant response rating, Wild oats (wild oat; [3]): 5
Wild oats plant response rating (wild oat; [4]): 0
Wild oats plant response rating (wild oat; [5]): 0
Plant response rating, Wild oats (wild oat; [7]): 0
Nutsedge plant response rating (purple nutsedge; [1]): 0
Nutsedge plant response rating (purple nutsedge; [2]): 0
Plant response rating, Nutsedge (purple nutsedge; [3]): 0
Nutsedge plant response rating (purple nutsedge; [4]): 0
Nutsedge plant response rating (purple nutsedge; [5]): 0
Nutsedge plant response rating (purple nutsedge; [6]): 0
Plant response rating, Nutsedge (purple nutsedge; [7]): 0
S. Flatsedge plant response rating (smallflower flatsedge; [9]): 0
S. Flatsedge plant response rating (smallflower flatsedge; [10]): 0
S. Flatsedge plant response rating (smallflower flatsedge; [11]): 0
S. Flatsedge plant response rating (smallflower flatsedge; [12]): 0
Barnyardgrass plant response rating (bamyardgrass; [9]): 0
Barnyardgrass plant response rating (bamyardgrass; [10]): 1
Barnyardgrass plant response rating (bamyardgrass; [11]): 4
Barnyardgrass plant response rating (bamyardgrass; [12]): 9

Reference: patent publication US6737383B1, “Herbicidal oxadiazolidines” (priority 1999, dated 2004)
